This is an account of results in US12421211B2, “Heterocyclic compounds” (Hoffmann-La Roche Inc., priority 2021, dated 2025).

The structures appear in SMILES notation. Structures can show the parent of a compound that is named as a salt.

The first assay deals with Acinetobacter baumannii ATCC17961. In words: Antimicrobial susceptibility testing: 90% growth inhibitory concentration (IC90) determination. It counts as cell-based. Particulars: Acinetobacter baumannii, ATCC17961, 16 h, 90% growth inhibitory concentration, Acinetobacter baumannii ATCC17961, Iso-Sensitest broth, OD 600 nm over 16 h; read-out: ATCC 17961 IC90. Summed up:
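Growth inhibition derived in log phase from OD600 kinetics (every 20 minutes, 16h, 35±2° C) of ATCC17961 in Iso-Sensitest medium, inoculum ~5×10^5 CFU/ml. Compounds tested as twofold series, 10 points (e.g. 50 to 0.097 μM final); IC90 and IC50 reported.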
Regarding `Cn1c(-c2ccc(-c3c[nH]nc3-c3ccccc3)c(F)c2F)cnc1C(=O)Nc1ccc(C(=O)N2CCN(C(=O)C3CC[N+](C)(C)CC3)CC2)c(Cl)c1` [Example F27, N-[3-chloro-4-[4-(1,1-dimethylpiperidin-1-ium-4-carbonyl)piperazine-1-carbonyl]phenyl]-5-[2,3-difluoro-4-(3-phenyl-1H-pyrazol-4-yl)phenyl]-1-methyl-imidazole-2-carboxamide; formate], the concentration for an effect of 90% (IC90) came to 400 nM.
As for `COCCn1ncc(-c2ccc(-c3cnc(C(=O)Nc4ccc(C(=O)N5CCN(C(=O)C6(O)CCNCC6)CC5)c(Cl)c4)n3C)c(F)c2F)c1C` [Example D24, N-[3-chloro-4-[4-(4-hydroxypiperidine-4-carbonyl)piperazine-1-carbonyl]phenyl]-5-[2,3-difluoro-4-[1-(2-methoxyethyl)-5-methyl-pyrazol-4-yl]phenyl]-1-methyl-imidazole-2-carboxamide; formic acid], the IC90 was found to be 73 nM.
The same measure, in the same setting: next, `Cn1c(-c2ccc(-c3cnn(CCN4CCOCC4)c3C(F)(F)F)c(F)c2F)cnc1C(=O)Nc1ccc(C(=O)N2CCN(C(=O)C3CC[N+](C)(C)CC3)CC2)c(Cl)c1` [Example F37, N-[3-chloro-4-[4-(1,1-dimethylpiperidin-1-ium-4-carbonyl)piperazine-1-carbonyl]phenyl]-5-[2,3-difluoro-4-[1-(2-morpholinoethyl)-5-(trifluoromethyl)pyrazol-4-yl]phenyl]-1-methyl-imidazole-2-carboxamide; formate]: 690 nM; `Cc1nn(-c2ccccn2)cc1-c1ccc(-c2cnc(C(=O)Nc3ccc(C(=O)N4CCN(C(=O)C5CC[N+](C)(C)CC5)CC4)c(Cl)c3)n2C)c(F)c1F` [Example F50, N-[3-chloro-4-[4-(1,1-dimethylpiperidin-1-ium-4-carbonyl)piperazine-1-carbonyl]phenyl]-5-[2,3-difluoro-4-[3-methyl-1-(2-pyridyl)pyrazol-4-yl]phenyl]-1-methyl-imidazole-2-carboxamide; formate]: 1100 nM; `COCCn1ncc(-c2ccc(-c3cnc(C(=O)Nc4ccc(C(=O)N5CCN(C(=O)[C@@H]6C[C@@H](O)C[N+]6(C)C)CC5)c(Cl)c4)n3C)c(F)c2F)c1C(F)F` [Example F12, N-[3-chloro-4-[4-[(2S,4R)-4-hydroxy-1,1-dimethyl-pyrrolidin-1-ium-2-carbonyl]piperazine-1-carbonyl]phenyl]-5-[4-[5-(difluoromethyl)-1-(2-methoxyethyl)pyrazol-4-yl]-2,3-difluoro-phenyl]-1-methyl-imidazole-2-carboxamide; formate]: 170 nM.
For the compound `COCCn1ncc(-c2ccc(-c3cnc(C(=O)Nc4ccc(C(=O)N5CCN(C(=O)C6(OC)CCNCC6)CC5)c(Cl)c4)n3C)c(F)c2F)c1C` [Example D44, N-[3-chloro-4-[4-(4-methoxypiperidine-4-carbonyl)piperazine-1-carbonyl]phenyl]-5-[2,3-difluoro-4-[1-(2-methoxyethyl)-5-methyl-pyrazol-4-yl]phenyl]-1-methyl-imidazole-2-carboxamide], the concentration for an effect of 90% (IC90) amounted to 160 nM.

Still in this assay, the particulars now being: Acinetobacter baumannii, ATCC17961, 16 h, read-out: ATCC 17961 IC90.
As for `COCCn1ncc(-c2ccc(-c3cnc(C(=O)Nc4ccc(C(=O)N5CCN(C(=O)[C@H]6CC[N@+](CC(=O)O)(CC7CNC7)CC6)CC5)c(C)c4)n3C)c(C)c2F)c1C` [Example O10, cis 2-[1-(azetidin-3-ylmethyl)-4-[4-[4-[[5-[3-fluoro-4-[1-(2-methoxyethyl)-5-methylpyrazol-4-yl]-2-methylphenyl]-1-methylimidazole-2-carbonyl]amino]-2-methylbenzoyl]piperazine-1-carbonyl]piperidin-1-ium-1-yl]acetic acid; formate], the IC90 turned out to be 231 nM.
